Measured values: the supplement of paper PMC10307832

How the values were obtained:
Experiment in all cases: relative viability (nuclei count vs DMSO), 5 days (fraction); higher = more cells survive
[1] = compound: O=C(O)c1ccc2c(c1)nc(Nc1cccc(Cl)c1)c1ccncc12 [Silmitasertib] + N=C(N)NC(=N)NCCc1ccccc1 [Phenformin] (partner 250 µM)
Outline: (§1)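 Medians of duplicate plates are given as relative viability. That measure is the nuclei count in treated wells divided by the count in vehicle wells. Counts were taken on 4× images of lung cancer cell lines in 1536-well plates, 5 days after pin-tool dosing the day after seeding with one drug alone or a fixed anchor-drug dose plus five library-drug doses (not always all listed) in √10 steps.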

[2] = compound: O=C(O)c1ccc2c(c1)nc(Nc1cccc(Cl)c1)c1ccncc12 [Silmitasertib] + CS(=O)(=O)CCNCc1ccc(-c2ccc3ncnc(Nc4ccc(OCc5cccc(F)c5)c(Cl)c4)c3c2)o1 [Lapatinib] (partner 2 µM)
Outline: as §1

[3] = compound: O=C(O)c1ccc2c(c1)nc(Nc1cccc(Cl)c1)c1ccncc12 [Silmitasertib] + Nc1nc2[nH]cc(CCc3ccc(C(=O)N[C@@H](CCC(=O)O)C(=O)O)cc3)c2c(=O)[nH]1 [Pemetrexed] (partner 0.2 µM)
Outline: as §1

[4] = compound: O=C(O)c1ccc2c(c1)nc(Nc1cccc(Cl)c1)c1ccncc12 [Silmitasertib] + CC(=O)c1c(C)c2cnc(Nc3ccc(N4CCNCC4)cn3)nc2n(C2CCCC2)c1=O [Palbociclib] (partner 0.5 µM)
Outline: as §1

Silmitasertib + Olaparib = compound: O=C(O)c1ccc2c(c1)nc(Nc1cccc(Cl)c1)c1ccncc12 [Silmitasertib] + O=C(c1cc(Cc2n[nH]c(=O)c3ccccc23)ccc1F)N1CCN(C(=O)C2CC2)CC1 [Olaparib] (partner 8 µM)
Outline: as §1

Cell Line | relative viability ([1]; first compound 0.04 µM) | relative viability ([1]; first compound 0.4 µM) | relative viability ([1]; first compound 1.265 µM) | relative viability ([1]; first compound 4 µM) | relative viability ([2]; first compound 0.04 µM) | relative viability ([2]; first compound 0.4 µM) | relative viability ([2]; first compound 1.265 µM) | relative viability ([2]; first compound 4 µM) | relative viability ([3]; first compound 0.04 µM) | relative viability ([3]; first compound 0.4 µM) | relative viability ([3]; first compound 1.265 µM) | relative viability ([3]; first compound 4 µM) | relative viability ([4]; first compound 0.04 µM) | relative viability ([4]; first compound 0.4 µM) | relative viability ([4]; first compound 1.265 µM) | relative viability ([4]; first compound 4 µM) | relative viability (Silmitasertib + Olaparib; first compound 0.04 µM) | relative viability (Silmitasertib + Olaparib; first compound 0.4 µM) | relative viability (Silmitasertib + Olaparib; first compound 1.265 µM) | relative viability (Silmitasertib + Olaparib; first compound 4 µM)
201T | 0.421 | 0.426 | 0.469 | 0.449 | 1.04 | 1.04 | 1.06 | 1.14 | 0.381 | 0.229 | 0.341 | 0.381 | 0.353 | 0.346 | 0.37 | 0.387 | 0.82 | 0.756 | 0.945 | 0.953
A549 | 0.237 | 0.131 | 0.121 | 0.161 | 1.23 | 1.08 | 0.781 | 0.736 | – | – | – | – | – | – | – | – | 0.301 | – | 0.273 | 0.12
A-427 | 0.365 | – | 0.297 | 0.156 | 1.06 | – | 1.24 | 0.573 | 1.04 | 0.826 | 1.05 | 0.669 | 0.555 | 0.451 | 0.583 | 0.517 | 0.87 | 0.616 | 0.762 | 0.579
ABC-1 | 0.298 | 0.214 | 0.179 | 0.201 | 1.19 | 0.848 | 0.58 | 0.884 | – | – | – | – | 1.09 | 0.86 | 0.555 | 0.674 | 0.814 | 0.863 | 0.777 | 0.738
BEN | 0.275 | – | 0.281 | 0.258 | 0.691 | 0.637 | 0.589 | 0.445 | 0.905 | 0.715 | 0.703 | 0.609 | 0.511 | 0.394 | 0.432 | 0.519 | 1.31 | 0.506 | 0.964 | 1.15
CAL-12T | 0.67 | 0.488 | 0.352 | 0.296 | 0.776 | 0.62 | 0.533 | 0.464 | 1.35 | 1.06 | 0.889 | 0.818 | 0.408 | 0.382 | 0.313 | 0.194 | 0.688 | 0.465 | 0.561 | 0.531
COR-L23 | 0.51 | 0.372 | 0.483 | 0.314 | 1.15 | 0.792 | 0.92 | 0.457 | 0.206 | 0.223 | 0.181 | 0.192 | 0.316 | 0.251 | 0.261 | 0.207 | 0.393 | 0.31 | 0.325 | 0.283
COR-L 105 | 0.476 | 0.458 | 0.408 | 0.307 | 0.338 | 0.312 | 0.311 | 0.349 | 1.05 | 1.19 | 0.951 | 0.785 | 0.43 | 0.426 | 0.396 | 0.399 | 0.716 | 0.614 | 0.689 | 0.5
ChaGo-K-1 | 0.532 | 0.349 | 0.446 | 0.319 | – | – | – | – | 0.265 | 0.24 | 0.253 | 0.275 | 0.995 | 0.674 | 0.896 | 0.929 | 0.421 | 0.288 | 0.376 | 0.399
EKVX | 0.22 | 0.167 | 0.185 | 0.203 | 0.236 | 0.192 | 0.157 | 0.144 | 0.394 | – | 0.383 | 0.338 | 0.439 | – | 0.336 | 0.423 | 0.889 | – | 0.7 | 0.784
EMC-BAC-2 | 0.578 | 0.493 | 0.381 | 0.301 | 0.963 | 0.884 | 0.66 | 0.586 | 0.455 | 0.319 | 0.423 | 0.369 | 0.521 | 0.448 | 0.378 | 0.292 | 0.477 | 0.358 | 0.333 | 0.283
EPLC-272H | 0.399 | – | 0.23 | 0.088 | 1.09 | – | 0.666 | 0.122 | 0.374 | 0.359 | 0.385 | 0.122 | 0.319 | – | 0.343 | 0.304 | 1.02 | 0.563 | 0.489 | 0.0904
H3255 | 0.355 | 0.353 | 0.31 | 0.359 | 0.239 | 0.227 | 0.204 | 0.169 | 0.602 | 0.5 | 0.394 | 0.499 | 0.319 | 0.348 | 0.316 | 0.294 | 0.579 | 0.492 | 0.549 | 0.53
HARA | 0.439 | 0.253 | 0.448 | 0.162 | 0.901 | 0.696 | 0.608 | 0.592 | 0.268 | 0.215 | 0.213 | 0.235 | 0.389 | 0.252 | 0.201 | 0.261 | 1.25 | 0.595 | 0.634 | 0.276
HCC-15 | 0.541 | 0.39 | 0.398 | 0.25 | 0.91 | 0.52 | 0.676 | 0.321 | 0.242 | 0.229 | 0.216 | 0.215 | 0.77 | 0.491 | 0.564 | 0.367 | 0.777 | 0.508 | 0.595 | 0.39
